Source: PMC9394549 (Nature, 2022)

Target: T1, GAT2 (Homo sapiens, UniProt Q9NSD5)
T1 sequence (Q9NSD5 1-602): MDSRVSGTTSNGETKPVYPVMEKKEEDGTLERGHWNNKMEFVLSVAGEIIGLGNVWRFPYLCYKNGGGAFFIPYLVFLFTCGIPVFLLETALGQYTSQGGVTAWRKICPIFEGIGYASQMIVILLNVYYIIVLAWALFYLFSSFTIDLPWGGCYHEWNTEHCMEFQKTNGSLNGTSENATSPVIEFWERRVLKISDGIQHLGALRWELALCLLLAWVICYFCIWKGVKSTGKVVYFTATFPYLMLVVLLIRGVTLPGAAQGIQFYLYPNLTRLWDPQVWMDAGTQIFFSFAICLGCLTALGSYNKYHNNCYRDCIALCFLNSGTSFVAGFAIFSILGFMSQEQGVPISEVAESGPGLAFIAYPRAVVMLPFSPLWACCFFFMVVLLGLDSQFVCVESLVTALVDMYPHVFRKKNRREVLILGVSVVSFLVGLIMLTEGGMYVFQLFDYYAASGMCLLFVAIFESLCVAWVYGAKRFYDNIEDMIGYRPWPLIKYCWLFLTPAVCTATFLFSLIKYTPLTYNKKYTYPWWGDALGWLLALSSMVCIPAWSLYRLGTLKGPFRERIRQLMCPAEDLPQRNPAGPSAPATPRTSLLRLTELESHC
Assay: [3H]-GABA uptake in transfected HEK293S GnTI− cells
Type: cell-based

NCCCC(=O)O [GABA]
[3H]-GABA uptake in transfected HEK293S GnTI- cells: Specific uptake of [^3H]-GABA in HEK293S cells expressing wild-type GAT1, wild-type GAT2
